Laboratory results: patent US9822118B2, “Bicyclic heteroaryl urea, thiourea, guanidine and cyanoguanidine compounds as TrkA kinase inhibitors” (Array BioPharma Inc., priority 2012, dated 2017)

Target: T1, recombinant human TrkA (Homo sapiens, UniProt P04629)
T1 construct: 6HIS tagged cytoplasmic domain from Invitrogen, Catalog No. PV3144; purchased Invitrogen PV3144
Assay: TrkA LanthaScreen Eu Kinase Binding Assay
Conditions: averaged IC50; TR-FRET binding assay, 60 min at 22° C.; read-out: TrkA Enzyme IC50
Experimental: TrkA binding activity was determined in a TrkA LanthaScreen™ Eu Kinase Binding Assay. 5 nM His-tagged recombinant human TrkA (6HIS tagged cytoplasmic domain from Invitrogen, Catalog No. PV3144) was incubated with 4 nM Alexa-Fluor® Tracer 236 (Invitrogen Cat. No. PV5592), 2 nM biotinylated anti-His (Invitrogen Cat. No. PV6090), and 2 nM europium-labeled Streptavidin (Invitrogen Cat. No. PV5899), in buffer (25 mM MOPS, pH 7.5, 5 mM MgCl2, 0.005% Triton X-100). Three fold serial dilutions of compounds of the invention in DMSO were added to a final percentage of 2% DMSO. After 60-minute incubation at 22° C., the reaction was measured using the EnVision multimode plate reader (PerkinElmer) via TR-FRET dual wavelength detection at […]. The percent of control was calculated using a ratiometric emission factor. The IC50 values were determined by fitting a four parameter model to the percent of control data.
Table A provides averaged IC50 values for compounds of the invention when tested in the assay of Example A, where A represents an averaged IC50 value <100 nM; and B represents an averaged IC50 value from 100 to 1,000 nM.

T1 sequence (P04629 440-796 limits assumed): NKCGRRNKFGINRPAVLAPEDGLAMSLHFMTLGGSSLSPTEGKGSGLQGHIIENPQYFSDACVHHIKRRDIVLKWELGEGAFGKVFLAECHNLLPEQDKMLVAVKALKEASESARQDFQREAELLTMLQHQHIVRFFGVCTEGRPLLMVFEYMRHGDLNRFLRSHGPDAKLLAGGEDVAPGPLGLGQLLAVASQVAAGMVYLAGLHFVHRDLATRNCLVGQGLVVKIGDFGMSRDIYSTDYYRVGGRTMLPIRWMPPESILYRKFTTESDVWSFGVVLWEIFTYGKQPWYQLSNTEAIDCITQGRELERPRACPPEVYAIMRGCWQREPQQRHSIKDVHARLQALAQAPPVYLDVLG

Compound	IC50
COCc1nn(-c2ccccc2)c(NC(=O)Nc2c(-c3ccccc3)nc3c(C(F)(F)F)cccn23)c1C [Example 31, 1-(3-(methoxymethyl)-4-methyl-1-phenyl-1H-pyrazol-5-yl)-3-(2-phenyl-8-(trifluoromethyl)imidazo[1,2-a]pyridin-3-yl)urea]	0.1 to 1 µM
CCOc1nn(-c2ccccc2)c(NC(=O)Nc2c(-c3cccc(F)c3)nc3c(C(F)(F)F)cccn23)c1C [Example 32, 1-(3-ethoxy-4-methyl-1-phenyl-1H-pyrazol-5-yl)-3-(2-(3-fluorophenyl)-8-(trifluoromethyl)imidazo[1,2-a]pyridin-3-yl)urea]	0.1 to 1 µM
CCOc1nn(-c2ccccc2)c(NC(=O)Nc2c(-c3ccc(F)cc3)nc3c(C(F)(F)F)cccn23)c1C [Example 33, 1-(3-ethoxy-4-methyl-1-phenyl-1H-pyrazol-5-yl)-3-(2-(4-fluorophenyl)-8-(trifluoromethyl)imidazo[1,2-a]pyridin-3-yl)urea]	< 0.1 µM
Cn1cc(-c2nn(-c3ccccc3)c(NC(=O)Nc3c(-c4ccccc4)nc4c(C(F)(F)F)cccn34)c2Cl)cn1 [Example 34, 1-(4-chloro-1′-methyl-1-phenyl-1H,1′H-[3,4′-bipyrazol]-5-yl)-3-(2-phenyl-8-(trifluoromethyl)imidazo[1,2-a]pyridin-3-yl)urea]	< 0.1 µM
COC[C@@H](O)COc1nn(-c2ccccc2)c(NC(=O)Nc2c(-c3ccccc3)nc3c(C(F)(F)F)cccn23)c1C [Example 35, (R)-1-(3-(2-hydroxy-3-methoxypropoxy)-4-methyl-1-phenyl-1H-pyrazol-5-yl)-3-(2-phenyl-8-(trifluoromethyl)imidazo[1,2-a]pyridin-3-yl)urea]	0.1 to 1 µM
COC[C@H](O)COc1nn(-c2ccccc2)c(NC(=O)Nc2c(-c3ccccc3)nc3c(C(F)(F)F)cccn23)c1C [Example 36, (S)-1-(3-(2-hydroxy-3-methoxypropoxy)-4-methyl-1-phenyl-1H-pyrazol-5-yl)-3-(2-phenyl-8-(trifluoromethyl)imidazo[1,2-a]pyridin-3-yl)urea]	< 0.1 µM
O=C(Nc1c2c(nn1-c1ccccc1)CCC2)Nc1c2ccccc2nn1-c1ccccc1 [Example 37, 1-(2-phenyl-2,4,5,6-tetrahydrocyclopenta[c]pyrazol-3-yl)-3-(2-phenyl-2H-indazol-3-yl)urea]	0.1 to 1 µM
O=C(Nc1c(-c2ccccc2)nn2ccccc12)Nc1c2c(nn1-c1ccccc1)CCC2 [Example 38, 1-(2-phenyl-2,4,5,6-tetrahydrocyclopenta[c]pyrazol-3-yl)-3-(2-phenylpyrazolopyridin-3-yl)urea]	< 0.1 µM
CCOc1nn(-c2ccccc2)c(NC(=O)Nc2c(-c3ccccc3)nn3ccccc23)c1C [Example 39, 1-(3-ethoxy-4-methyl-1-phenyl-1H-pyrazol-5-yl)-3-(2-phenylpyrazolo[1,5-a]pyridin-3-yl)urea]	0.1 to 1 µM
